According to patent US4094979A, “Orally active cephalosporins” (American Home Products Corporation, priority 1976, dated 1978):
In brackets after ≈: the same amount, converted by molar mass. Where a name gives a salt, the structure may show the parent alone.

Legend:
E. Coli (920) = assay: oral antibacterial activity in intraperitoneally infected CD-1 mice; format: in vivo
Method: (§1) The oral antibacterial activity of the compounds of this invention was establihsed by intraperitoneally infecting four groups of 10 male mice CD-1 strain weighing 17-19 grams with 0.5 milliliter of a standardized suspension of bacterium in 5 percent gastric mucin. The animals were then randomized and at 6 hours post infection a single dose of the antibacterial compound being tested was given orally at 7.2, 3.6, 1.8 and 0.9 mg/mouse to each group of 10 mice.
(§2) Testing against E. Coli (920-LD95), as a general representative of gram-negative bacteria, was followed by testing against Proteus vulgaris (347) as an example of a special application against a gram negative bacterium. In the oral anti-bacterial activity test, an arbitrary maximum dose is set at 7.2 milligrams per mouse below which activity must be found before a compound is considered orally active. The arbitrary maximum dose of 7.2 milligrams per mouse represents a practical dose limit in terms of the potency of known orally active antibacterial agents.

E. Coli (E-2) = assay: as above; format: in vivo
Method: as §1, §2

E. Coli (E-3) = assay: as above; format: in vivo
Method: as §1, §2

E. Coli W-102 = assay: as above; format: in vivo; conditions: E. Coli W-102, at 7.2 mg/mouse
Method: as §1, §2

Proteus vulgaris (347) = assay: as above; format: in vivo
Method: as §1, §2

St Py = assay: as above; format: in vivo; conditions: P.O., single dose 6 hours post infection, 14 days
Method: as §1, §2

St Au (Smith) = assay: as above; format: in vivo
Method: as §1, §2

Kl Pn = assay: as above; format: in vivo; conditions: P.O., single dose 6 hours post infection, 14 days
Method: as §1, §2

Pr Mi = assay: as above; format: in vivo; conditions: P.O., single dose 6 hours post infection, 14 days
Method: as §1, §2

Ne Ca 819 = assay: in vitro agar serial dilution, MIC; format: cell-based; conditions: strain 819
Sa Pa 11737 = assay: in vitro agar serial dilution, MIC; format: cell-based; conditions: strain 11737
En Ae 13048 = assay: in vitro agar serial dilution, MIC; format: cell-based; conditions: strain 13048
St Au CHP = assay: in vitro agar serial dilution, MIC; format: cell-based; conditions: strain CHP
St Au 53-180 = assay: in vitro agar serial dilution, MIC; format: cell-based; conditions: strain 53-180
St Au 6538P = assay: in vitro agar serial dilution, MIC; format: cell-based; conditions: strain 6538P
Es Co 9637 = assay: in vitro agar serial dilution, MIC; format: cell-based; conditions: strain 9637
Kl Pn 10031 = assay: in vitro agar serial dilution, MIC; format: cell-based; conditions: strain 10031
St Au Smith = assay: in vitro agar serial dilution, MIC; format: cell-based; conditions: strain Smith
Pr Mi 9921 = assay: in vitro agar serial dilution, MIC; format: cell-based; conditions: strain 9921
My Sm 10143 = assay: in vitro agar serial dilution, MIC; format: cell-based; conditions: strain 10143
Es In 65-1 = assay: in vitro agar serial dilution, MIC; format: cell-based; conditions: strain 65-1
Ps Ae 10145 = assay: in vitro agar serial dilution, MIC; format: cell-based; conditions: strain 10145
[1] = E. Coli, P.O., single dose 6 hours post infection, 14 days
[2] = P.O., single dose 6 hours post infection, 14 days
[3] = Pr Bu, P.O., single dose 6 hours post infection, 14 days

Molecule `Cn1nnnc1SCC1=C(C(=O)O)N2C(=O)C(NC(=O)CCN3C(=O)CSC3=S)C2SC1` (stereo not drawn) has a CD50 (E. Coli (920); E. Coli (920), oral) of 3.05 mg/mouse, a CD50 (E. Coli (E-2)) of 3.30 mg/mouse and a CD50 (E. Coli (E-3)) of 2.12 mg/mouse. The oral antibacterial activity (E. Coli W-102) was “inactive” and the CD50 (Proteus vulgaris (347); Pr vulgaris (347), oral) was 5.90 mg/mouse.
`CC1=C(C(=O)O)N2C(=O)[C@@H](NC(=O)[C@H](N)C3=CCC=CC3)[C@H]2SC1` [Cephradine, reference compound] gave a CD50 (E. Coli (920); [1]) of 2.27 mg/mouse, a CD50 (St Py) of under 0.45 mg/mouse and a CD50 (St Au (Smith); [2]) of 0.140 mg/mouse. For the same molecule, the CD50 (Proteus vulgaris (347); [3]) was 6.52 mg/mouse, the CD50 (Kl Pn) was 2.42 mg/mouse and the CD50 (Pr Mi) was 2.25 mg/mouse.
With `Cn1nnnc1SCC1=C(C(=O)O)N2C(=O)C(NC(=O)CCN3C(=O)CSC3=S)C2SC1` (stereo not drawn) [Ex. 1-Na salt] the CD50 (E. Coli (920); [1]) was 2.35 mg/mouse, the CD50 (St Py) was over 3.6 mg/mouse and the CD50 (St Au (Smith); [2]) was 2.73 mg/mouse. The CD50 (Proteus vulgaris (347); [3]) was 5.97 mg/mouse, the CD50 (Kl Pn) was 1.36 mg/mouse and the CD50 (Pr Mi) was 4.49 mg/mouse.
`Cn1nnnc1SCC1=C(C(=O)O)N2C(=O)C(NC(=O)CCN3C(=O)CSC3=S)C2SC1` (stereo not drawn) [Example 1 acid] showed an MIC (Ne Ca 819) of 31.3 µg/mL (≈ 60.7 µM), a CD50 (E. Coli (920); E. Coli (920), buffered to pH 4.9 in aqueous solution) of 2.97 mg/mouse and a CD50 (St Au (Smith); buffered to pH 4.9 in aqueous solution) of 2.73 mg/mouse. For the same molecule, the CD50 (Proteus vulgaris (347); Pr vulgaris (Pr-347), buffered to pH 4.9 in aqueous solution) was 5.97 mg/mouse, the MIC (Sa Pa 11737) was 0.97 µg/mL (≈ 1.88 µM) and the MIC (En Ae 13048) was 250 µg/mL (≈ 485 µM). The MIC (St Au CHP) was 7.81 µg/mL (≈ 15.1 µM), the MIC (St Au 53-180) was 3.9 µg/mL (≈ 7.56 µM) and the MIC (St Au 6538P) was 1.95 µg/mL (≈ 3.78 µM). It also gave an MIC (Es Co 9637) of 3.9 µg/mL (≈ 7.56 µM), an MIC (Kl Pn 10031) of 3.9 µg/mL (≈ 7.56 µM) and an MIC (St Au Smith) of 1.95 µg/mL (≈ 3.78 µM). For the same molecule, the MIC (Pr Mi 9921) was 0.97 µg/mL (≈ 1.88 µM), the MIC (My Sm 10143) was 250 µg/mL (≈ 485 µM) and the MIC (Es In 65-1) was 62.5 µg/mL (≈ 121 µM). For the same molecule, the MIC (Ps Ae 10145) was 250 µg/mL (≈ 485 µM).
